Entries after “also recorded” stand apart in the source; their conditions may differ.
Key:
PKC .xi. = conditions: cytosolic or membranous fractions
Procedure: (§1) The cells were washed twice with phosphate-buffered saline (PBS) at 37° C. and subsequently lysed and scraped in 1 ml ice-cold protein lysis buffer (20 mM Tris-HCl, pH7.4, 2 mM EGTA, 2 mM EDTA, […] leupeptin and […] aprotinin) at 4° C. […] Briefly, cells were homogenized 10× in 15 ml glass homogenizer with a tight-fitting pestle and centrifuged at 900×g for 10 min. The resulting supernatant was then centrifuged at 100,000×g for 60 min to produce a nucleus-free membrane fraction (pellet) and a cytosol fraction (supernatant) for Western blots. The 900×g nuclear pellet was suspended in the 2 ml lysis buffer containing 10% sucrose and 0.1% Triton X-100 and washed twice by centrifuging at 1000×g for 10 min, then resuspended in 1 ml of the same buffer without Triton X-100 for Western blots. The purity of the fractions was monitored by light microscopy. […] The samples were stored at -70° C. until analysis.
(§2) 15 μl of human plasma, 15 μl of rat plasma, CSF or 50 μg of rat brain protein were denatured with 35 μl of sample buffer at 95° C. for 4 min. Denatured proteins were separated by 10% SDS-polyacrylamide gel electrophoresis with a 50 μg or 20 μg protein load for each sample for APPs or PKC, respectively, and electrophoretically transferred from gel to nitrocellulose membrane. […] The immunoreactive bands were developed using enhanced chemilumenescence (ECL. Amersham Life Sci., Little Chalfont, UK), following extensive washing with the blocking buffer. The PKC bands were verified in each case by competitively blocking the signal with the peptide corresponding to each of PKCs. The bands were quantitated by scanning densitometry. Quantitative comparisons were made between samples processed simultaneously on one blot.
(§3) Male Sprague-Dawley rats (12 month) were obtained from Harlan-Sprague-Dawley, Inc. (Indianapolis, Ind.) and housed under controlled conditions of temperature humidity and light/dark cycle. […] Rat blood, brain and 50 μl of cerebrospinal fluid were collected and stored at -70° C. for APPs and PKC analysis by Western blotting. Rat stomach and duodenum were collected for the quantitation of gastroduodenal lesions.
(§4) Following separation of cytosolic or membrane proteins of rat brain protein by SDS-polyacrylamide gel electrophoresis, the proteins were transfer to nitrocellular membranes. The membranes were then probed for presence of PKCs using polyclonal antibodies against PKC α, βII, θ, ε, .xi., or γ.

PKC α = test system: PKC α
Procedure: as §1, §2, §3, §4

PKC θ = conditions: cytosolic or membranous fractions
Procedure: as §1, §2, §3, §4

PKC ε = conditions: cytosolic or membranous fractions
Procedure: as §1, §2, §3, §4

PKC γ = conditions: cytosolic or membranous fractions
Procedure: as §1, §2, §3, §4

PKC βII = test system: PKC βII
Procedure: as §1, §2, §3, §4

APPs (105 kDa) = APPs (105 kDa) in human blood; format: in vivo
Procedure: as §2
Food intake was restricted until 4 h post dose. […] Over the next 6 days, ibuprofen was administered as 800 mg t.i.d. and subjects were instructed to return on day 3 and 5 for a single blood draw. […] Serum samples were stoiced -20° C. prior to analysis.

PKCα = PKCα translocation in NIH 3T3 cells (subcellular fractionation, Western blot); format: cell-based; conditions: for PKCα localization: PMA 0.02 μg/ml, 2% FBS
Procedure: (§5) NIH 3T3 cells (American Type Culture Collection, Rockville, Md.) were cultured in DMEM supplemented with 10% FBS inoculated at 10^4 cells/35 […] dish. […] PMA and ibuprofen were dissolved in DMSO and stored in 5% DMSO stock solutions that were diluted a 1000-fold with culture media prior to use. […] The media containing freshly added PMA and ibuprofen were changed every 60 hours for both the foci formation assay and PKCα analysis by Western blot.
as §1, §2

rat stomach and duodenum = experiment: Gastric ulcer index / gastroduodenal lesions in rat; format: in vivo; conditions: rat, in vivo
Procedure: as §3
The rat stomach and first 12 cm of the duodenum were opened and carefully shed with saline to remove any residual debris and fixed in 10% buffered formaldehyde. Tissues were examined macroscopically (×10) for lesions and hemorrhages. The evaluation of lesions or hemorrhages was based on the ulcer index (UI) reported by Leyck et al. (1985) and expressed as the sum total of lesions per treatment. The scoring units used ranged from 0 to 5, where zero represents no macroscopically visible lesions; 1 represents one to three small ulcers less than 4 mm; 2 represents more than three small ulcers; 3 represents ulcer hemorrhages with several small ulcers; 4 represents large (>4 mm) ulcers; 5 indicates tissue perforation.

PKC = biological target: T1, PKC (Rattus norvegicus, UniProt P05696); experiment: Protein kinase C activity assay (histone phosphorylation, partially purified rat brain PKC); format: biochemical; conditions: PMA stimulated, 2 min, 30° C.
T1 construct: Partially purified PKCα from rat brain; purchased Promega (Madison, Wis.); host or cells: rat brain (tissue enzyme, partially purified)
Procedure: The following were obtained from the Sigma Chemical Co. (St. […] Anti-PKCα antibody (affinity purified) and its C-terminal region peptide was obtained from Life Technologies (Gaithersburg, Md.). […] All other chemicals were of the highest available purity and were obtained from standard commercial sources. […] Following 2 min initial incubation at 30° C., kinase reactions were initiated by the addition of ^32 P-γ-ATP and enzyme and continued at 30° C. for 2 min. Control incubations contained all assay components except enzyme and ibuprofen. […] All samples were carried out in duplicate.

[1] = test system: APPs secretion by NIH 3T3 cell lines; conditions: 50 μM
APPs [2] = conditions: 10 mg/kg P.O. bid, 7 days
Procedure: as §2, §3
The cytosolic and membrane fractions were obtained by differential centrifugation of rat brain tissue treated by ibuprofen. […]

NIH 3T3 cells = experiment: Foci formation assay, inhibition of PMA induced neoplastic transformation of NIH 3T3 cells; format: cell-based; conditions: for inhibition of PMA induced foci formation / neoplastic transformation: ibuprofen 10 or 100 μg/ml
Procedure: as §5
Subsequent to washing with a tris/ saline buffer, the cells were stained with a solution of 4% aqueous Giemsa stain in phosphate buffer (pH 7.0). Foci of transformed cells were then visible by eye due to their high local density and verified by under light microscopy.

APPs [3] = conditions: 10 mg/kg P.O. bid, 7 days; remark: listed apart in the source
Procedure: as §1, §2
(§6) Male Sprague-Dawley rats (12 month) were obtained from Harlan-Sprague-Dawley, Inc. (Indianapolis, Ind.) and housed under controlled conditions of temperature humidity and light/dark cycle. […] Rat stomach and duodenum were collected for the quantitation of gastroduodenal lesions. […]

[4] = test system: c-jun expression in NIH 3T3 cells; conditions: cited from earlier work
[5] = test system: mouse mammary glands cancer; conditions: carcinogen induced; cited from earlier work
rat colon cancer = conditions: carcinogen induced; cited from earlier work
Ht-29 = conditions: cited from earlier work
UACC 375 = conditions: cited from earlier work
neutrophil = conditions: by chemotactic agents; cited from earlier work
[6] = Estimated unbound fraction of ibuprofen in culture media; format: in vitro ADME
lung and gastric cancer = conditions: carcinogen induced; cited from earlier work
MCF 7/s = conditions: cited from earlier work
A-427 = conditions: cited from earlier work
APP = conditions: 10 mg/kg P.O. bid, 7 days
Procedure: as §1, §2, §6

[7] = cited from earlier work
AD progression = conditions: 6-month, double-blind, placebo-controlled; cited from earlier work
[8] = membrane fraction, 10 mg/kg bid 7 days, n = 4 mean ± S.D.

## CC(C)Cc1ccc(C(C)C(=O)O)cc1 (racemic) [RS-ibuprofen]
PKC .xi.
  effect on PKC .xi. content: did not show a dramatic effect
PKC α; 7 days of treatment
  rat brain PKC α content (in words): not significantly
PKC α; [8]
  Density of PKC α Bands: 13.61 ± 5.15
PKC θ
  effect on PKC θ content: did not show a dramatic effect
PKC ε
  effect on PKC ε content: did not show a dramatic effect
PKC γ
  effect on PKC γ content: did not show a dramatic effect
PKC βII; 7 days of treatment
  rat brain PKC βII content (in words): not significantly
PKC βII; [8]
  Density of PKC βII Bands: 8.46 ± 3.68
APPs (105 kDa); 1st dose (800 mg), 0 hour (before dose), n = 4, mean ± S.D.
  human blood APPs (105 kDa): 1.95
APPs (105 kDa); after 7 days dosing, 800 mg t.i.d. oral
  duration of increased APPs (105 kDa) secretion: 14 days
APPs (105 kDa); post 1st dose (800 mg), 1 hour, n = 4, mean ± S.D.
  human blood APPs (105 kDa): 3.64
APPs (105 kDa); post 1st dose (800 mg), 3 hours, n = 4, mean ± S.D.
  human blood APPs (105 kDa): 3.22
APPs (105 kDa); post 7 days dose (800 mg, tid), 1 hour, n = 4, mean ± S.D.
  human blood APPs (105 kDa): 4.57
APPs (105 kDa); post 7 days dose (800 mg, tid), 1 day, n = 4, mean ± S.D.
  human blood APPs (105 kDa): 6.15
APPs (105 kDa); post 7 days dose (800 mg, tid), 2 days, ND = Not detectable
  human blood APPs (105 kDa): 4.77
APPs (105 kDa); post 7 days dose (800 mg, tid), 3 days, ND = Not detectable
  human blood APPs (105 kDa): 4.33
APPs (105 kDa); post 7 days dose (800 mg, tid), 4 days, ND = Not detectable
  human blood APPs (105 kDa): 3.37
APPs (105 kDa); post 7 days dose (800 mg, tid), 14 days, ND = Not detectable
  human blood APPs (105 kDa): 3.77
APPs (105 kDa); single oral 800 mg dose
  duration of increased APPs (105 kDa) secretion: 1 days
PKCα; 10 μg/ml, 2 weeks of PMA
  PKCα detectable in the membrane fraction: detectable in the membrane fraction
PKCα; 10 μg/ml, PMA 4 hours
  inhibition of PKCα translocation from cytosol to nuclear compartments: completely blocked
PKCα; 10 μg/ml, particularly 2 weeks of PMA
  inhibition of PKCα translocation, racemate versus enantiomers: less potent than either of the enantiomers
Rat stomach and duodenum
  gastropathy (in words): induced serious gastric ulcers and hemorrhage
PKC
  concentration inhibiting PKC mediated histone phosphorylation: 2 µM
[1]; 20 h culture, n = 2, mean ± S.D.
  Density of APPs band: 6.073 ± 0.55
APPs [2]
  APPs secretion in rat CSF (in words): dramatically increased APPs secretion
APPs [2]; n = 4 mean ± S.D.
  Density of APP Bands, CSF: 13.63 ± 6.56
NIH 3T3 cells; PMA 0.02 μg/ml, 2% FBS, 6 weeks, listed as Racemic ibuprofen
  inhibition of PMA induced foci formation / neoplastic transformation: dramatically decreased
NIH 3T3 cells; PMA 0.02 μg/ml, 2% FBS, 6 weeks, listed as racemic ibuprofen
  inhibition of PMA induced foci formation / neoplastic transformation: inhibit the neoplastic transformation; also recorded: substantially inhibited
APPs [3]; n = 4 mean ± S.D.
  Density of APP Bands, Cytosol: 9.32 ± 5.35

## CCCCCCCCCCCCCC(=O)O[C@@H]1[C@@H](C)[C@@]2(O)[C@@H](C=C(CO)C[C@]3(O)C(=O)C(C)=C[C@@H]23)[C@@H]2C(C)(C)[C@]12OC(C)=O [PMA, phorbol 12-myristate 13-acetate]
PKCα; 2 weeks
  PKCα localization: translocation from cytosol to membrane fractions, but interestingly translocation to the nuclear compartment was absent
PKCα; 30 min
  PKCα localization: translocation of PKCα to the membrane fraction and some indication of PKCα appearing in the nuclear fraction
PKCα; 4 hours
  PKCα localization: clear association of PKCα with the nuclear fraction
PKCα; 18 hours
  PKCα localization: remained at 18 hours despite its disappearance from the membrane and cytosolic fractions
PKCα; 48 hours
  PKCα localization: cytosolic PKCα had been regenerated but membrane and nuclear sites were not
PKCα; reduced media FBS plus PMA 0.02 μg/ml, 4 to 18 hours
  PKCα translocation: significant translocation of PKCα to both nuclear and microsomal membranes
NIH 3T3 cells; PMA 0.02 μg/ml, 2% FBS, 6 weeks
  dish area occupied by foci: over 50%
[4]
  c-jun expression: transiently induces c-jun expression

## CC(C)Cc1ccc(C(C)C(=O)O)cc1 (stereo not drawn) [ibuprofen, α-4-(2-methylpropyl) benzeneacetic acid]
[5]
  anticancer activity: demonstrated anticancer activity
Rat colon cancer
  anticancer activity: demonstrated anticancer activity
Ht-29
  inhibition of proliferation: inhibits the proliferation
UACC 375
  inhibition of proliferation: inhibits the proliferation
neutrophil
  blocking of neutrophil activation: blocks neutrophil activation by chemotactic agents but this effect is not enantioselective
[6]
  fraction unbound: ~0.05
Lung and gastric cancer
  anticancer activity: demonstrated anticancer activity
[1]; 20 h
  APPs secretion (in words): increased APPs secretion
MCF 7/s
  inhibition of proliferation: inhibits the proliferation
A-427
  inhibition of proliferation: inhibits the proliferation
NIH 3T3 cells; DMSO vehicle, no PMA
  effect on NIH 3T3 cell growth patterns without PMA: no effect
APPs [3]
  content of cytosolic APPs of rat brain (in words): increased the content of cytosolic APPs
APP
  content of membrane APP of rat brain (in words): decreased content of membrane APP of rat brain, but not significantly
[7]
  protein binding (in words): highly protein bound
[7]; suspensions, drops, caplets, chewable tablets
  oral absorption: well absorbed orally

## COc1ccc2c(c1)c(CC(=O)O)c(C)n2C(=O)c1ccc(Cl)cc1 [indomethacin]
AD progression
  slowing AD progression: very effective in slowing AD progression
